# Literature values in patent US6800616B2, “Treatment of HIV infections” (SuperGen, Inc., priority 1998, dated 2004).
# Assays:
# [1] = test system: T cells, CD4+ subset; details: patients given DCF, FLU or 2CDA
# [2] = molecular target: T1, adenosine deaminase (ADA) (Homo sapiens, UniProt P00813)
# T1 sequence (P00813 1-363): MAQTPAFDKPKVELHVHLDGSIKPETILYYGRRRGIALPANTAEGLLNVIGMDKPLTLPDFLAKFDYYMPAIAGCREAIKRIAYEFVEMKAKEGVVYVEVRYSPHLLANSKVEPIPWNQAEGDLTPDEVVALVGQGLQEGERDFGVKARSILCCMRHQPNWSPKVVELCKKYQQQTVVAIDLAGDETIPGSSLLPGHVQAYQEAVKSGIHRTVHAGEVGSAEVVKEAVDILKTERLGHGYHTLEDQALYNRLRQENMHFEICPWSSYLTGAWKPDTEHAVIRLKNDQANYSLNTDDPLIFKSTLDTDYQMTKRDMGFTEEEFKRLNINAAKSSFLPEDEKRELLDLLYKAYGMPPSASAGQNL
# [3] = test system: resting normal human lymphocytes
SMILES,frequency of opportunistic infections [1],lymphopenia upon administration [1],resistance to ADA [2],toxicity to resting lymphocytes [3]
"OC[C@H]1O[C@@H](n2cnc3c2NC=NC[C@H]3O)C[C@@H]1O [DCF, 2′-deoxycoformycin]",increased frequency of opportunistic infections,"prolonged lymphopenia predominating in T cells, especially in the CD4+ subset",–,–
"Nc1nc(Cl)nc2c1ncn2[C@H]1C[C@H](O)[C@@H](CO)O1 [2CDA, 2-chloro-2′-deoxyadenosine]",increased frequency of opportunistic infections,"prolonged lymphopenia predominating in T cells, especially in the CD4+ subset",rather resistant to the enzyme,selectively harm resting normal human lymphocytes
"Nc1nc(F)nc2c1ncn2[C@@H]1O[C@H](COP(=O)(O)O)[C@@H](O)[C@@H]1O [FLU, fludarabine monophosphate]",increased frequency of opportunistic infections,"prolonged lymphopenia predominating in T cells, especially in the CD4+ subset",rather resistant to the enzyme,–
